This note sets out measurements from US20090325964A1, “Piperazine Metabotropic Glutamate Receptor 5 (MGLUR5) Negative Allosteric Modulators For Anxiety/Depression” (Wyeth, priority 2008, published 2009).

This experiment deals with T1, rat mGluR5 receptor (Rattus norvegicus, UniProt P31424).
T1 construct: expressed in transfected cells; host or cells: HEK-293
In words: [3H]-MPEP displacement binding assay, HEK-293 cell membranes expressing rat mGluR5. To be noted: Biological Activity, Table 2A; for inhibition at 10 µM: @ 10 μM compound, read-out: PCT INHIB (%) @ 10 μM; for Ki: read-out: Median Ki. In short, it runs like this: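 Membranes from HEK-293 cells expressing rat mGluR5 (12-25 μg protein), incubated 60 min at room temperature with 4 nM [3H]-MPEP in 50 mM Tris pH 7.5, then filtered. Nonspecific binding defined with 10 μM MPEP.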

T1 sequence (P31424 21-1203): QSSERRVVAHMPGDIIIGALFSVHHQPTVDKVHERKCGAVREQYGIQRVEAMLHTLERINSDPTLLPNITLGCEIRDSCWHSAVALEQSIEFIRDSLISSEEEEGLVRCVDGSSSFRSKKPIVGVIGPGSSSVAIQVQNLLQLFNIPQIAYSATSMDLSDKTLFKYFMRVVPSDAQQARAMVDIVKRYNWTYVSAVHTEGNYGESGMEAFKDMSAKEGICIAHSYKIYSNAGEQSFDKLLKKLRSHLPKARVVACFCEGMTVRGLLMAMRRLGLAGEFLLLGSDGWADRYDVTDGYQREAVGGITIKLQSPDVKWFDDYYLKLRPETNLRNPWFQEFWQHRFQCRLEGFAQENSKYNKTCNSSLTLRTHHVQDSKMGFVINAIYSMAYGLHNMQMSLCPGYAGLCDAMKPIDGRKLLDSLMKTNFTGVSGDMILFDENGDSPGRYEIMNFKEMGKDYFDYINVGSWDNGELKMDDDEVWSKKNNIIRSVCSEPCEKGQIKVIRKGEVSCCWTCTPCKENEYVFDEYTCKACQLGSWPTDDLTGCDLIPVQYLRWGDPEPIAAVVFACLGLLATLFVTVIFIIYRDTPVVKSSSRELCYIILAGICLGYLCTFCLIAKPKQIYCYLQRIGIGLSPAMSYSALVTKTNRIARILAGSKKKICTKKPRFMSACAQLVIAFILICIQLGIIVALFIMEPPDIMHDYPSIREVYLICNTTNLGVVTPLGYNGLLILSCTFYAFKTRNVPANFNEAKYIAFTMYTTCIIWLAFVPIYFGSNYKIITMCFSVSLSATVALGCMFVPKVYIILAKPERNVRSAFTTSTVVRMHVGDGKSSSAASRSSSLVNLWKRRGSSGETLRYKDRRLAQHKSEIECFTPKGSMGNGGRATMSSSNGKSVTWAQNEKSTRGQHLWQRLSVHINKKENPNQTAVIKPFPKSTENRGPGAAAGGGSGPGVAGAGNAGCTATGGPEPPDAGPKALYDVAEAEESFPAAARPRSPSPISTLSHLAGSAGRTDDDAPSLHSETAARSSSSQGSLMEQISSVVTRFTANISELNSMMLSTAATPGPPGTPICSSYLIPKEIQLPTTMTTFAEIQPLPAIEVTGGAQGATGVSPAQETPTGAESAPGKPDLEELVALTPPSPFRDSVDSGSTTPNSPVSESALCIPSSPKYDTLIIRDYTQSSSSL

As to `COc1ccc(C(=O)N2CCN(c3ccc(C(F)(F)F)cn3)CC2)cc1C#Cc1ccccc1` [Compound 114, 1-[4-methoxy-3-(phenylethynyl)benzoyl]-4-[5-(trifluoromethyl)pyridin-2-yl]piperazine], the inhibition at 10 µM was 26%.
As a reminder, the Ki is a dissociation constant, usually derived from enzyme kinetics or from competition with a known ligand. As for `COc1ccc(C(=O)N2CCN(c3cc(C)ccn3)CC2)cc1C#Cc1ccccc1` [Compound 115, 1-[4-methoxy-3-(phenylethynyl)benzoyl]-4-(4-methylpyridin-2-yl]piperazine], the inhibition at 10 µM was found to be 93% and the Ki is 3.15 nM.
Taken in the same sequence, the figures for `COc1ccc(C(=O)N2CCN(c3cccc(C)n3)CC2)cc1C#Cc1ccccc1` [Compound 116, 1-[4-methoxy-3-(phenylethynyl)benzoyl]-4-(6-methylpyridin-2-yl]piperazine] were 77% and 853 nM.
On to `COc1ccc(C(=O)N2CCN(c3cccc(C(F)(F)F)n3)CC2)cc1C#Cc1ccccc1` [Compound 117, 1-[4-methoxy-3-(phenylethynyl)benzoyl]-4-[6-(trifluoromethyl)pyridin-2-yl]piperazine], for which the inhibition at 10 µM was 35%.
Consider `COc1ccc(C(=O)N2CCN(c3ncccc3C#N)CC2)cc1C#Cc1ccccc1` [Compound 118, 2-{4-[4-methoxy-3-(phenylethynyl)benzoyl]piperazin-1-yl}nicotinonitrile], for which the inhibition at 10 µM was 78% and the Ki came to 1760 nM.
For `COc1ccc(C(=O)N2CCN(c3nc(C)cc(C)n3)CC2)cc1C#Cc1ccccc1` [Compound 119, 2-{4-[4-methoxy-3-(phenylethynyl)benzoyl]piperazin-1-yl}-4,6-dimethylpyrimidine], the inhibition at 10 µM turned out to be 35%.
For `O=C(c1ccnc(C#Cc2ccccc2)c1)N1CCN(c2ncccn2)CC1` [Compound 120, 2-{4-[2-(phenylethynyl)isonicotinoyl]piperazin-1-yl}pyrimidine], the inhibition at 10 µM was 49% and the Ki worked out at 2890 nM.
The matching figures for `O=C(c1ccnc(C#Cc2ccccc2)c1)N1CCN(c2ccccn2)CC1` [Compound 121, 1-[2-(phenylethynyl)isonicotinoyl]-4-pyridin-2-ylpiperazine]: 72% and 1130 nM.
Regarding `N#Cc1ccc(N2CCN(C(=O)c3ccnc(C#Cc4ccccc4)c3)CC2)nc1` [Compound 122, 6-{4-[2-(phenylethynyl)isonicotinoyl]piperazin-1-yl}nicotinonitrile], the inhibition at 10 µM turned out to be 0%.
Turning to `O=C(c1ccnc(C#Cc2ccccc2)c1)N1CCN(c2ccc(C(F)(F)F)cn2)CC1` [Compound 123, 1-[2-(phenylethynyl)isonicotinoyl]-4-[5-(trifluoromethyl)pyridin-2-yl]piperazine], the inhibition at 10 µM was 0%.
`Cc1ccnc(N2CCN(C(=O)c3ccnc(C#Cc4ccccc4)c3)CC2)c1` [Compound 124, 1-(4-methylpyridin-2-yl)-4-[2-(phenylethynyl)isonicotinoyl]piperazine]: the inhibition at 10 µM came out at 84% and the Ki amounted to 338 nM.
In the case of `Cc1cccc(N2CCN(C(=O)c3ccnc(C#Cc4ccccc4)c3)CC2)n1` [Compound 125, 1-(6-methylpyridin-2-yl)-4-[2-(phenylethynyl)isonicotinoyl]piperazine], the inhibition at 10 µM amounted to 30%.
In the case of `O=C(c1ccnc(C#Cc2ccccc2)c1)N1CCN(c2cccc(C(F)(F)F)n2)CC1` [Compound 126, 1-[2-(phenylethynyl)isonicotinoyl]-4-[6-(trifluoromethyl)pyridin-2-yl]piperazine], the inhibition at 10 µM was 54%.
As for `O=C(c1ccnc(C#Cc2ccccc2)c1)N1CCN(c2cnccn2)CC1` [Compound 127, 2-{4-[2-(phenylethynyl)isonicotinoyl]piperazin-1-yl}pyrazine], the inhibition at 10 µM was determined as 36%.
Consider `N#Cc1ccc(N2CCN(C(=O)c3cccc(C#Cc4ccccc4)c3)CC2)nc1` [Compound 128, 6-{4-[3-(phenylethynyl)benzoyl]piperazin-1-yl}nicotinonitrile], for which the inhibition at 10 µM came to 48%.
As for `O=C(c1cccc(C#Cc2ccccc2)c1)N1CCN(c2ncccc2C(F)(F)F)CC1` [Compound 129, 1-[3-(phenylethynyl)benzoyl]-4-[3-(trifluoromethyl)pyridin-2-yl]piperazine], the inhibition at 10 µM turned out to be 45%.
For `O=C(c1cncc(C#Cc2ccccc2)c1)N1CCN(c2ncccn2)CC1` [Compound 130, 2-(4-{[5-(phenylethynyl)pyridin-3-yl]carbonyl}piperazin-1-yl)pyrimidine], the inhibition at 10 µM was 47%.
`N#Cc1ccc(N2CCN(C(=O)c3cncc(C#Cc4ccccc4)c3)CC2)nc1` [Compound 131, 6-(4-{[5-(phenylethynyl)pyridin-3-yl]carbonyl}piperazin-1-yl)nicotinonitrile]: the inhibition at 10 µM was found to be 0%.
On to `O=C(c1cncc(C#Cc2ccccc2)c1)N1CCN(c2ccc(C(F)(F)F)cn2)CC1` [Compound 132, 1-{[5-(phenylethynyl)pyridin-3-yl]carbonyl}-4-[5-(trifluoromethyl)pyridin-2-yl]piperazine], for which the inhibition at 10 µM was 0%.
In the case of `Cc1ccnc(N2CCN(C(=O)c3cncc(C#Cc4ccccc4)c3)CC2)c1` [Compound 133, 1-(4-methylpyridin-2-yl)-4-{[5-(phenylethynyl)pyridin-3-yl]carbonyl}piperazine], the inhibition at 10 µM turned out to be 52% and the Ki worked out at 651 nM.
`O=C(c1cncc(C#Cc2ccccc2)c1)N1CCN(c2ncccc2C(F)(F)F)CC1` [Compound 134, 1-{[5-(phenylethynyl)pyridin-3-yl]carbonyl}-4-[3-(trifluoromethyl)pyridin-2-yl]piperazine]: the inhibition at 10 µM stood at 0%.
`N#Cc1cccnc1N1CCN(C(=O)c2cncc(C#Cc3ccccc3)c2)CC1` [Compound 135, 2-(4-{[5-(phenylethynyl)pyridin-3-yl]carbonyl}piperazin-1-yl)nicotinonitrile]: the inhibition at 10 µM was 28%.
Consider `Cc1cc(C)nc(N2CCN(C(=O)c3cncc(C#Cc4ccccc4)c3)CC2)n1` [Compound 136, 4,6-dimethyl-2-(4-{[5-(phenylethynyl)pyridin-3-yl]carbonyl}piperazin-1-yl)pyrimidine], for which the inhibition at 10 µM was 0%.
The same measure, in the same setting: then `O=C(c1cncc(C#Cc2ccccc2)c1)N1CCN(c2cnccn2)CC1` [Compound 137, 2-(4-{[5-(phenylethynyl)pyridin-3-yl]carbonyl}piperazin-1-yl)pyrazine], with 32%; and `O=C(c1cncc(C#Cc2ccccc2)c1)N1CCN(c2ccncc2)CC1` [Compound 138, 1-{[5-(phenylethynyl)pyridin-3-yl]carbonyl}-4-pyridin-4-ylpiperazine], with 0%; and `N#Cc1cccnc1N1CCN(C(=O)c2ccnc(C#Cc3ccccc3)c2)CC1` [Compound 139, 2-{4-[2-(phenylethynyl)isonicotinoyl]piperazin-1-yl}nicotinonitrile], with 40%.
Regarding `Cc1cc(C)nc(N2CCN(C(=O)c3ccnc(C#Cc4ccccc4)c3)CC2)n1` [Compound 140, 4,6-dimethyl-2-{4-[2-(phenylethynyl)isonicotinoyl]piperazin-1-yl}pyrimidine], the inhibition at 10 µM worked out at 37%.
Regarding `N#Cc1cccnc1N1CCN(C(=O)c2cccc(C#Cc3ccccc3)c2)CC1` [Compound 141, 2-{4-[3-(phenylethynyl)benzoyl]piperazin-1-yl}nicotinonitrile], the inhibition at 10 µM came to 78% and the inhibition constant (Ki) was found to be 1090 nM.
